From patent publication US20250288704A1, “CXCR4-LIGANDS FOR DIAGNOSTIC AND THERAPEUTIC USE AND PRECURSORS THEREOF” (priority 2021, published 2025)
Non-standard residues stand in square brackets, D forms with d. Residues, ends and D or L forms follow the SMILES beside them. Groups on a side chain read outwards from the residue. *: point of attachment. DOTA = O=C(O)CN1CCN(CC(=O)O)CCN(CC(=O)*)CCN(CC(=O)O)CC1; dTyr(3-I) = N[C@H](Cc1ccc(O)c(I)c1)C(=O)O; 2Nal = N[C@@H](Cc1ccc2ccccc2c1)C(=O)O; dNMeOrn = CN[C@H](CCCN)C(=O)O; 4Abz = Nc1ccc(C(=O)O)cc1; dDap = NC[C@@H](N)C(=O)O

Key:
[1] = system: Jurkat tumor-bearing CB-17 SCID mice; test: Biodistribution in Jurkat tumor-bearing CB-17 SCID mice; type: in vivo; design: tissue to tissue ratio at 1 h / tissue to tissue ratio / tissue to tissue ratio at 48 h: reference not given here; conditions: for Calculated tumor retention 6 h compared to the 1 h-value / Calculated tumor retention 48 h compared to the 1 h-value: mouse, in vivo
Procedure, shortened: (§1)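 Radioligand (125I, 177Lu, 99mTc, 18F or 68Ga label; roughly 0.5-20 MBq, 0.02-0.20 nmol) was injected intravenously via tail vein. Hosts were CB17-SCID mice with subcutaneous Jurkat tumors of 5-8 mm, 4-10 weeks post-inoculation. Dissected organs were weighed and counted in a γ-counter.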

[2] = as above; type: in vivo; design: tissue to tissue ratio at 1 h / tissue to tissue ratio / tissue to tissue ratio at 48 h: reference not given here; conditions: CB-17 SCID, mouse, in vivo, iv, total radioactivity
Procedure, shortened: as §1

[3] = system: CXCR4-expressing Chem_1 cells; test: Determination of internalization, dual tracer with 125I-Fc-131; type: cell-based; conditions: of total cellular activity
Procedure, shortened: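 Receptor blockade used AMD3100 (1 mM stock) versus medium-treated wells, triplicate per time point, in Chem_1 cells cultured at 37 °C in DMEM-F12/10% FBS. Activity of supernatant, surface-bound and internalized (1 M NaOH) fractions measured by γ-counter, corrected for non-specific uptake and normalised to standard ligand.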

SMILES: C[C@@H](NC(=O)[C@@H](CCCNC(=N)N)NC(=O)[C@@H](CN)NC(=O)CN1CCN(CC(=O)O)CCN(CC(=O)O)CCN(CC(=O)O)CC1)C(=O)Nc1ccc(C(=O)NCCC[C@@H]2C(=O)N[C@@H](CCCNC(=N)N)C(=O)N[C@@H](Cc3ccc4ccccc4c3)C(=O)NCC(=O)N[C@H](Cc3ccc(O)cc3)C(=O)N2C)cc1 [CXCR4-DOTA-3 [Lu]] (cyclo([dY][dNMeOrn]([4Abz-dA-dR-dDap-DOTA])R[2Nal]G))
- Calculated tumor retention 6 h compared to the 1 h-value [1]: 82%
- Calculated tumor retention 48 h compared to the 1 h-value [1]: 65%
- tissue to tissue ratio [2]: 229
- tissue to tissue ratio at 1 h [2]: 9.25
- tissue to tissue ratio at 48 h [2]: 1360
- tissue uptake at 1 h ([2]; Tumor activity 1 h p.i.): 8.42 %ID/g
- tissue uptake at 6 h ([2]; Tumor activity 6 h p.i.): 6.88 %ID/g
- tissue uptake at 48 h ([2]; Tumor activity 48 h p.i.): 5.44 %ID/g
- tissue uptake at 1 h ([2]; female, % iD/g Blood): 0.91 %ID/g
- tissue uptake at 6 h ([2]; female, % iD/g Blood): 0.03 %ID/g
- tissue uptake at 1 h ([2]; female, % iD/g Bone): 0.55 %ID/g
- tissue uptake at 6 h ([2]; female, % iD/g Bone): 0.28 %ID/g
- tissue uptake at 48 h ([2]; female, % iD/g Bone): 0.18 %ID/g
- tissue uptake at 1 h ([2]; female, % iD/g Heart): 0.53 %ID/g
- tissue uptake at 6 h ([2]; female, % iD/g Heart): 0.09 %ID/g
- tissue uptake at 48 h ([2]; female, % iD/g Heart): 0.06 %ID/g
- tissue uptake at 1 h ([2]; female, % iD/g Intestine): 0.44 %ID/g
- tissue uptake at 6 h ([2]; female, % iD/g Intestine): 0.44 %ID/g
- tissue uptake at 48 h ([2]; female, % iD/g Intestine): 0.11 %ID/g
- tissue uptake at 1 h ([2]; female, % iD/g Kidney): 14.1 %ID/g
- tissue uptake at 6 h ([2]; female, % iD/g Kidney): 13.4 %ID/g
- tissue uptake at 48 h ([2]; female, % iD/g Kidney): 4.47 %ID/g
- tissue uptake at 1 h ([2]; female, % iD/g Liver): 8.48 %ID/g
- tissue uptake at 6 h ([2]; female, % iD/g Liver): 9.43 %ID/g
- tissue uptake at 48 h ([2]; female, % iD/g Liver): 8.84 %ID/g
- tissue uptake at 1 h ([2]; female, % iD/g Lung): 1.67 %ID/g
- tissue uptake at 6 h ([2]; female, % iD/g Lung): 0.25 %ID/g
- tissue uptake at 48 h ([2]; female, % iD/g Lung): 0.14 %ID/g
- tissue uptake at 1 h ([2]; female, % iD/g Muscle): 0.18 %ID/g
- tissue uptake at 6 h ([2]; female, % iD/g Muscle): 0.03 %ID/g
- tissue uptake at 48 h ([2]; female, % iD/g Muscle): 0.01 %ID/g
- tissue uptake at 1 h ([2]; female, % iD/g Pancreas): 0.28 %ID/g
- tissue uptake at 6 h ([2]; female, % iD/g Pancreas): 0.09 %ID/g
- tissue uptake at 48 h ([2]; female, % iD/g Pancreas): 0.05 %ID/g
- tissue uptake at 1 h ([2]; female, % iD/g Spleen): 1.55 %ID/g
- tissue uptake at 6 h ([2]; female, % iD/g Spleen): 1.38 %ID/g
- tissue uptake at 48 h ([2]; female, % iD/g Spleen): 1.32 %ID/g
- tissue uptake at 1 h ([2]; female, % iD/g Stomach): 0.94 %ID/g
- tissue uptake at 6 h ([2]; female, % iD/g Stomach): 0.25 %ID/g
- tissue uptake at 48 h ([2]; female, % iD/g Stomach): 0.07 %ID/g
- tissue uptake at 1 h ([2]; female, % iD/g Tumor): 8.42 %ID/g
- tissue uptake at 6 h ([2]; female, % iD/g Tumor): 6.88 %ID/g
- tissue uptake at 48 h ([2]; female, % iD/g Tumor): 5.44 %ID/g

SMILES: C[C@@H](NC(=O)[C@@H](CCCNC(=N)N)NC(=O)[C@@H](CN)NC(=O)CN1CCN(CC(=O)O)CCN(CC(=O)O)CCN(CC(=O)O)CC1)C(=O)Nc1ccc(C(=O)NCCC[C@@H]2C(=O)N[C@@H](CCCNC(=N)N)C(=O)N[C@@H](Cc3ccc4ccccc4c3)C(=O)NCC(=O)N[C@H](Cc3ccc(O)c(I)c3)C(=O)N2C)cc1 [CXCR4-DOTA-4 [Lu]] (cyclo([dTyr(3-I)][dNMeOrn]([4Abz-dA-dR-dDap-DOTA])R[2Nal]G))
- Calculated tumor retention 6 h compared to the 1 h-value [1]: 126%
- Calculated tumor retention 48 h compared to the 1 h-value [1]: 117%
- tissue to tissue ratio [2]: 156
- tissue to tissue ratio at 1 h [2]: 3.6
- tissue to tissue ratio at 48 h [2]: 362
- tissue uptake at 1 h ([2]; Tumor activity 1 h p.i.): 6.19 %ID/g
- tissue uptake at 6 h ([2]; Tumor activity 6 h p.i.): 7.78 %ID/g
- tissue uptake at 48 h ([2]; Tumor activity 48 h p.i.): 7.23 %ID/g
- tissue uptake at 1 h ([2]; female, % iD/g Blood): 1.72 %ID/g
- tissue uptake at 6 h ([2]; female, % iD/g Blood): 0.05 %ID/g
- tissue uptake at 48 h ([2]; female, % iD/g Blood): 0.02 %ID/g
- tissue uptake at 1 h ([2]; female, % iD/g Bone): 1.07 %ID/g
- tissue uptake at 6 h ([2]; female, % iD/g Bone): 0.57 %ID/g
- tissue uptake at 48 h ([2]; female, % iD/g Bone): 1.47 %ID/g
- tissue uptake at 1 h ([2]; female, % iD/g Heart): 1.13 %ID/g
- tissue uptake at 6 h ([2]; female, % iD/g Heart): 0.22 %ID/g
- tissue uptake at 48 h ([2]; female, % iD/g Heart): 0.21 %ID/g
- tissue uptake at 1 h ([2]; female, % iD/g Intestine): 0.87 %ID/g
- tissue uptake at 6 h ([2]; female, % iD/g Intestine): 0.82 %ID/g
- tissue uptake at 48 h ([2]; female, % iD/g Intestine): 0.28 %ID/g
- tissue uptake at 1 h ([2]; female, % iD/g Kidney): 14.4 %ID/g
- tissue uptake at 6 h ([2]; female, % iD/g Kidney): 11.3 %ID/g
- tissue uptake at 48 h ([2]; female, % iD/g Kidney): 5.31 %ID/g
- tissue uptake at 1 h ([2]; female, % iD/g Liver): 19.2 %ID/g
- tissue uptake at 6 h ([2]; female, % iD/g Liver): 20.5 %ID/g
- tissue uptake at 48 h ([2]; female, % iD/g Liver): 21.7 %ID/g
- tissue uptake at 1 h ([2]; female, % iD/g Lung): 3.69 %ID/g
- tissue uptake at 6 h ([2]; female, % iD/g Lung): 0.6 %ID/g
- tissue uptake at 48 h ([2]; female, % iD/g Lung): 0.47 %ID/g
- tissue uptake at 1 h ([2]; female, % iD/g Muscle): 0.3 %ID/g
- tissue uptake at 6 h ([2]; female, % iD/g Muscle): 0.07 %ID/g
- tissue uptake at 48 h ([2]; female, % iD/g Muscle): 0.05 %ID/g
- tissue uptake at 1 h ([2]; female, % iD/g Pancreas): 0.52 %ID/g
- tissue uptake at 6 h ([2]; female, % iD/g Pancreas): 0.16 %ID/g
- tissue uptake at 48 h ([2]; female, % iD/g Pancreas): 0.24 %ID/g
- tissue uptake at 1 h ([2]; female, % iD/g Spleen): 4.57 %ID/g
- tissue uptake at 6 h ([2]; female, % iD/g Spleen): 2.68 %ID/g
- tissue uptake at 48 h ([2]; female, % iD/g Spleen): 3.63 %ID/g
- tissue uptake at 1 h ([2]; female, % iD/g Stomach): 1.35 %ID/g
- tissue uptake at 6 h ([2]; female, % iD/g Stomach): 0.41 %ID/g
- tissue uptake at 48 h ([2]; female, % iD/g Stomach): 0.23 %ID/g
- tissue uptake at 1 h ([2]; female, % iD/g Tumor): 6.19 %ID/g
- tissue uptake at 6 h ([2]; female, % iD/g Tumor): 7.78 %ID/g
- tissue uptake at 48 h ([2]; female, % iD/g Tumor): 7.23 %ID/g

SMILES: CC[C@H](C)[C@@H]([C@@H](CC(=O)N1CCC[C@H]1[C@H](OC)[C@@H](C)C(=O)N[C@H](C)C(O)c1ccccc1)OC)N(C)C(=O)[C@@H](NC(=O)[C@H](C(C)C)N(C)C(=O)OCc1ccc(NC(=O)[C@H](CCCNC(N)=O)NC(=O)[C@@H](NC(=O)CCCCCN2C(=O)CC(SCC[C@@H](N)C(=O)N[C@H](CCCNC(=N)N)C(=O)N[C@H](C)C(=O)Nc3ccc(C(=O)NCCC[C@@H]4C(=O)N[C@@H](CCCNC(=N)N)C(=O)N[C@@H](Cc5ccc6ccccc6c5)C(=O)NCC(=O)N[C@H](Cc5ccc(O)cc5)C(=O)N4C)cc3)C2=O)C(C)C)cc1)C(C)C (some centres unmarked) [^125I-CXCR4-MMAE −2]
- % iD/g Blood ([1]; Blood, 1 h p.i., Jurkat xenograft, CB-17 SCID female mice): 2.28 % iD/g
- % iD/g Bone ([1]; Bone, 1 h p.i., Jurkat xenograft, CB-17 SCID female mice): 0.80 % iD/g
- % iD/g Heart ([1]; Heart, 1 h p.i., Jurkat xenograft, CB-17 SCID female mice): 1.31 % iD/g
- % iD/g Intestine ([1]; Intestine, 1 h p.i., Jurkat xenograft, CB-17 SCID female mice): 1.13 % iD/g
- % iD/g Kidney ([1]; Kidney, 1 h p.i., Jurkat xenograft, CB-17 SCID female mice): 18.3 % iD/g
- % iD/g Liver ([1]; Liver, 1 h p.i., Jurkat xenograft, CB-17 SCID female mice): 27.8 % iD/g
- % iD/g Lung ([1]; Lung, 1 h p.i., Jurkat xenograft, CB-17 SCID female mice): 3.67 % iD/g
- % iD/g Muscle ([1]; Muscle, 1 h p.i., Jurkat xenograft, CB-17 SCID female mice): 0.33 % iD/g
- % iD/g Pancreas ([1]; Pancreas, 1 h p.i., Jurkat xenograft, CB-17 SCID female mice): 0.80 % iD/g
- % iD/g Spleen ([1]; Spleen, 1 h p.i., Jurkat xenograft, CB-17 SCID female mice): 4.31 % iD/g
- % iD/g Stomach ([1]; Stomach, 1 h p.i., Jurkat xenograft, CB-17 SCID female mice): 1.85 % iD/g
- % iD/g Tumor ([1]; Tumor, 1 h p.i., Jurkat xenograft, CB-17 SCID female mice): 2.41 % iD/g
- Cell-bound [%] ([3]; 10 min): 1.56 ± 0.78%
- Internalized [%] ([3]; 10 min): 2.55 ± 0.34%
- Cell-bound [%] ([3]; 30 min): 2.09 ± 0.64%
- Internalized [%] ([3]; 30 min): 7.78 ± 0.58%
- Cell-bound [%] ([3]; 60 min): 0.73 ± 0.54%
- Internalized [%] ([3]; 60 min): 14.6 ± 0.89%
- Cell-bound [%] ([3]; 120 min): 0.27 ± 0.35%
- Internalized [%] ([3]; 120 min): 27.9 ± 1.14%
